# Measured values reported in patent US20020077329A1, “EP4 receptor inhibitors to treat rheumatoid arthritis” (priority 2000, published 2002).
# Marks after values point to notes of the source that are not given here.
# How the values were obtained:
# [1] = system: rats with adjuvant-induced arthritis; test: Paw edema of adjuvant arthritis (hindpaw volume, hydroplethysmometer); format: in vivo, male, Sprague-Dawley rats; details: for % inhibition contralateral paw / % inhibition ipsilateral paw: paw edema on day 14, perorally day 0 to day 14, compound A and B 60 mg/kg bid, piroxicam 3 mg/kg qd, rofecoxib 1.5 mg/kg bid, n=8
# Procedure: (§1) Arthritis was induced in male, Sprague-Dawley rats (115-145 g, Japan SLC Inc., Shizuoka, Japan) on Day 0 by an injection of 300 μg of M. Tuberculosis H37 RA (Difco Laboratories Inc., Detroit, Mich.) in 100 μl of liquid paraffin (Wako Pure Chemical Industries, Ltd., Osaka, Japan) into the right hind footpad (Neuroscience 78: 843-850, 1997) on Day 0.
# (§2) EP4 antagonists included within Formula I as described above (compound A and B, 60 mg/kg, bid), piroxicam (Feldene®, 3 mg/kg, qd), rofecoxib (Vioxx®, 1.5 mg/kg, bid), and control vehicle were each suspended in 0.1% methylcellulose (MC) and perorally administered separately in five groups of rats from day 0 to day 14 in a volume of 1 ml per 100 g body weight.
# Hindpaw volume was measured by an hydroplethysmometer (Ugo Basile, Comerio, Italy) on Day 0, immediately before adjuvant injection, and on Days 1, 4, 7, 11 and 14 after injection. Paw swelling (%) was calculated as follows (Agents and Actions 34: 63-65, 1991):
# swelling (%)={Day X volume (ml)−Day 0 volume (ml)}/Day 0 volume (ml)×100.
# [2] = system: rats with adjuvant-induced arthritis; test: Arthritic score in adjuvant arthritis (sum of the score for all four limbs); format: in vivo, male, Sprague-Dawley rats; details: day 14; perorally day 0 to day 14; compound A and B 60 mg/kg bid, piroxicam 3 mg/kg qd, rofecoxib 1.5 mg/kg bid; n=8
# Procedure: as §1, §2
# On Day 14, the arthritic score of each paw was evaluated as described below. The total arthritic score for each animal was the sum of the score for all four limbs (Agents and Actions 27: 356-358, 1989). […]
compound,measurement,setting,value
"CN1C(C(=O)Nc2ccccn2)=C(O)c2ccccc2S1(=O)=O [Piroxicam, piroxicam]",% inhibition contralateral paw,[1],96.2* %
same,% inhibition ipsilateral paw,[1],50.8** %
same,% inhibition (arthritic score),[2],26.7** %
"CCc1nc2c(C)nc(C)nc2n1-c1ccc(CCOC(=O)NS(=O)(=O)c2ccc(C)cc2)cc1 [Example 228, 2-[4-(8-ethyl-2,6-dimethyl-9H-purin-9-yl)phenyl]ethyl (4-methylphenyl)sulfonylcarbamate]",melting point,,162 °C
"CCc1nc2cc(C(F)(F)F)c(Cl)cc2n1-c1ccc(C[C@H](C)OC(=O)NS(=O)(=O)c2ccc(C)cc2)cc1 [Example 250, (1S)-2-{4-[6-chloro-2-ethyl-5-(trifluoromethyl)-1H-benzimidazol-1-yl]phenyl}-1-methylethyl (4-methylphenyl)sulfonylcarbamate]",melting point,,200.3 °C
"CS(=O)(=O)c1ccc(C2=C(c3ccccc3)C(=O)OC2)cc1 [Rofecoxib, rofecoxib]",edema formation in the ipsilateral paws (result in words),"[1]; during the entire experimental period (day 0 to day 14), versus disease group untreated with compound",weaker activity
same,% inhibition contralateral paw,[1],25.6%
same,% inhibition ipsilateral paw,[1],37.1* %
same,% inhibition (arthritic score),[2],18.5** %
"CCc1nc2cc(C(C)=O)ccc2n1-c1ccc(CCOC(=O)NS(=O)(=O)c2ccc(C)cc2)cc1 [Example 332, 2-[4-(5-acetyl-2-ethyl-1H-benzimidazol-1-yl)phenyl]ethyl (4-methylphenyl)sulfonylcarbamate]",melting point,,188 to 190 °C
CCc1nc2cc(C(F)(F)F)c(Cl)cc2n1-c1ccc(CCN(C(=O)O)S(=O)(=O)c2ccc(C)cn2)cc1.Cl,melting point,,205.8 °C
"CCc1nc2c(C)nc(C)cc2n1-c1ccc(CCOC(=O)NS(=O)(=O)c2ccc(C)cc2)cc1 [Example 227, 2-[4-(2-ethyl-4,6-dimethyl-1H-imidazo[4,5-c]pyridin-1-yl)phenyl]ethyl (4-methylphenyl)sulfonylcarbamate]",melting point,,158 °C
